In experiment [1] the test system is mouse FL5.12 cells transfected with Bcl-XL. Put plainly: FL5.12 cellular assay (cell viability, CellTiter-Glo). The experiment is classed as cell-based. Conditions: IL-3-depleted, 3% FBS assay media, 24 hours, read-out: FL5.12 Bcl-xL, -IL3, EC 50. The method, then: The efficacy of the compounds of Formula (I) can also be determined in cell-based killing assays using a variety of cell lines and mouse tumor models. For example, their activity on cell viability can be assessed on a panel of cultured tumorigenic and non-tumorigenic cell lines, as well as primary mouse or human cell populations. In one exemplary set of conditions, mouse FL5.12 cells transfected with Bcl-XL were cultured under standard conditions in RPMI with 2 mM glutamine, 1% 100 mM sodium pyruvate, 2% 1 M HEPES, 4 μL/L of β-mercaptoethanol, 1% penicillinstreptomycin, 10% FBS, and 10% WEHI-3B conditioned media (for IL-3). For assaying the compound activity, the cells were exchanged into an IL-3-depleted deprivation media, which was identical to the growth media except for the absence of FBS and WEHI-3B conditional media, for 2 days. Then the cells were exchanged to 3% FBS assay media (RPMI with 2 mM glutamine, 1% 100 mM sodium pyruvate, 2% 1 M HEPES, 4 μL/L of β-mercaptoethanol, 1% penicillinstreptomycin, 3% FBS). Compounds in series dilutions were added, and the cells were cultured for 24 hours. Cell viability was assayed using the CellTiter-Glo assay (Promega Corp., Madison, Wis.) according to the manufacturer instructions. Individual determinations were the result of duplicate values.
In general terms: Cellular ATP, detected with luciferase, serves as a proxy for viable cell number.

A further experiment deals with GST-Bcl-xL (Homo sapiens (Human), UniProt Q07817). Put plainly: TR-FRET binding assay, competition with F-Bak for Bcl-xL. Conditions: competition with F-Bak probe, GST-Bcl-xL 1 nM. The method, then: Determination of the utility of compounds having Formula (I) as binders to and inhibitors of anti-apoptotic Bcl-xL proteins was performed using the Time Resolved-Fluorescence Resonance Energy Transfer (TR-FRET) Assay. Tb-anti-GST antibody was purchased from Invitrogen (Catalog No. PV4216).
Sequence of GST-Bcl-xL (Q07817 whole entry): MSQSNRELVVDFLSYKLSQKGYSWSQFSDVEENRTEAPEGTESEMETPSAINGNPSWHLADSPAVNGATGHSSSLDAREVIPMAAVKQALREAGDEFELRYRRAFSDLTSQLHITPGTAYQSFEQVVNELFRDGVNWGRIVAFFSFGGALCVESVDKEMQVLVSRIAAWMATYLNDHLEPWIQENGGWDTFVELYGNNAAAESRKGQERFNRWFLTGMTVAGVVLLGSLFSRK
The measurement of competition of compounds of Formula (I) with F-Bak for a Bcl-2 family protein (Bcl-xL) binding site using a Time Resolved Fluorescence Resonance Energy Transfer (TR-FRET) binding assay:
Test compounds were serially diluted in DMSO starting at 50 μM (2× starting concentration; 10% DMSO) and 10 μL transferred into a 384-well plate.
The samples are then mixed on a shaker for 1 minute then incubated for an additional 2 hours at room temperature. For each assay plate, a probe/antibody and protein/antibody/probe mixture were included as a negative and a positive control, respectively. Fluorescence was measured on the ENVISION plate reader (Perkin Elmer) using a 340/35 nm excitation filter and 520/525 (F-Bak) and 495/510 nm (Tb-labeled anti-his antibody) emission filters. Dissociation constants (Ki) were determined using Wang's equation (Wang, Z. X. An 20 exact mathematical expression for describing competitive binding of two different ligands to protein molecule. FEBS Lett. 1995 360:111-114). The TR-FRET assay can be performed in the presence of varying concentrations of human serum (HS) or fetal bovine serum (FBS).

15 compounds from patent US8883784B2, “Apoptosis-inducing agents for the treatment of cancer and immune and autoimmune diseases” (AbbVie Inc., priority 2012, dated 2014) can be followed below.

Molecules are shown by their SMILES. Bounds are passed on as bounds.

As a reminder, the Ki is a dissociation constant, usually derived from enzyme kinetics or from competition with a known ligand. A low value points to tighter binding. Take `CN(C)CC[C@H](CSc1ccccc1)Nc1ccc(S(=O)(=O)NC(=O)c2csc(N3CCc4cccc(C(=O)Nc5nc6ccccc6s5)c4C3)n2)cc1[N+](=O)[O-]` [Example 1, N-(1,3-benzothiazol-2-yl)-2-(4-{[(4-{[(2R)-4-(dimethylamino)-1-(phenylsulfanyl)butan-2-yl]amino}-3-nitrophenyl)sulfonyl]carbamoyl}-1,3-thiazol-2-yl)-1,2,3,4-tetrahydroisoquinoline-8-carboxamide]: the EC50 in experiment [1] came out at 56 nM. The Ki at GST-Bcl-xL stood at 0.1 nM. For the compound `O=C(NS(=O)(=O)c1ccc(N[C@H](CCN2CCOCC2)CSc2ccccc2)c(S(=O)(=O)C(F)(F)F)c1)c1csc(N2CCc3cccc(C(=O)Nc4nc5ccccc5s4)c3C2)n1` [Example 2, N-(1,3-benzothiazol-2-yl)-2-(4-{[(4-{[(2R)-4-(morpholin-4-yl)-1-(phenylsulfanyl)butan-2-yl]amino}-3-[(trifluoromethyl)sulfonyl]phenyl)sulfonyl]carbamoyl}-1,3-thiazol-2-yl)-1,2,3,4-tetrahydroisoquinoline-8-carboxamide], the EC50 in experiment [1] was 12 nM. The same compound came in with a Ki on GST-Bcl-xL of 0.1 nM. As to `O=C(NS(=O)(=O)c1ccc(N[C@H](CCN2CCOCC2)CSc2ccccc2)c(S(=O)(=O)C(F)(F)F)c1)c1cccc(N2CCc3cccc(C(=O)Nc4nc5ccccc5s4)c3C2)n1` [Example 3, N-(1,3-benzothiazol-2-yl)-2-(6-{[(4-{[(2R)-4-(morpholin-4-yl)-1-(phenylsulfanyl)butan-2-yl]amino}-3-[(trifluoromethyl)sulfonyl]phenyl)sulfonyl]carbamoyl}pyridin-2-yl)-1,2,3,4-tetrahydroisoquinoline-8-carboxamide], in experiment [1], the EC50 is over 1000 nM. Moreover, the inhibitory constant (Ki) at GST-Bcl-xL came out at 12 nM.

As to `CN(C)CCCNc1ccc(S(=O)(=O)NC(=O)c2nc(N3CCc4cccc(C(=O)Nc5nc6ccccc6s5)c4C3)ccc2CCCc2ccccc2)cc1[N+](=O)[O-]` [Example 4, N-(1,3-benzothiazol-2-yl)-2-[6-{[(4-{[3-(dimethylamino)propyl]amino}-3-nitrophenyl)sulfonyl]carbamoyl}-5-(3-phenylpropyl)pyridin-2-yl]-1,2,3,4-tetrahydroisoquinoline-8-carboxamide], the EC50 in experiment [1] is over 1000 nM. Further, on GST-Bcl-xL, the Ki came to 9 nM.

For the compound `CN(C)CCCNc1ccc(S(=O)(=O)NC(=O)c2nc(N3CCc4cccc(C(=O)Nc5nc6ccccc6s5)c4C3)ccc2CCCc2ccccc2)cc1S(=O)(=O)C(F)(F)F` [Example 5, N-(1,3-benzothiazol-2-yl)-2-[6-{[(4-{[3-(dimethylamino)propyl]amino}-3-[(trifluoromethyl)sulfonyl]phenyl)sulfonyl]carbamoyl}-5-(3-phenylpropyl)pyridin-2-yl]-1,2,3,4-tetrahydroisoquinoline-8-carboxamide], the EC50 in experiment [1] was over 1000 nM. Besides, the Ki on GST-Bcl-xL amounted to 48 nM. `CN(C)CCCNc1ccc(S(=O)(=O)NC(=O)c2nc(N3CCc4cccc(C(=O)Nc5nc6ccccc6s5)c4C3)ccc2CCc2ccccc2)cc1[N+](=O)[O-]` [Example 6, N-(1,3-benzothiazol-2-yl)-2-[6-{[(4-{[3-(dimethylamino)propyl]amino}-3-nitrophenyl)sulfonyl]carbamoyl}-5-(2-phenylethyl)pyridin-2-yl]-1,2,3,4-tetrahydroisoquinoline-8-carboxamide]: the EC50 in experiment [1] was over 1000 nM. In addition, the Ki at GST-Bcl-xL is 17 nM. On to `CN(C)CCCNc1ccc(S(=O)(=O)NC(=O)c2csc(N3CCc4cccc(C(=O)Nc5nc6ccccc6s5)c4C3)n2)cc1S(=O)(=O)C(F)(F)F` [Example 7, N-(1,3-benzothiazol-2-yl)-2-(4-{[(4-{[3-(dimethylamino)propyl]amino}-3-[(trifluoromethyl)sulfonyl]phenyl)sulfonyl]carbamoyl}-1,3-thiazol-2-yl)-1,2,3,4-tetrahydroisoquinoline-8-carboxamide], for which the EC50 in experiment [1] was over 1000 nM. For the same compound, at GST-Bcl-xL, affinity was put at a Ki of 1.7 nM. As to `CN(C)CCCNc1ccc(S(=O)(=O)NC(=O)c2nc(N3CCc4cccc(C(=O)Nc5nc6ccccc6s5)c4C3)sc2Cc2ccccc2)cc1S(=O)(=O)C(F)(F)F` [Example 8, N-(1,3-benzothiazol-2-yl)-2-(5-benzyl-4-{[(4-{[3-(dimethylamino)propyl]amino}-3-[(trifluoromethyl)sulfonyl]phenyl)sulfonyl]carbamoyl}-1,3-thiazol-2-yl)-1,2,3,4-tetrahydroisoquinoline-8-carboxamide], the EC50 in experiment [1] is over 1000 nM. Moreover, the affinity on GST-Bcl-xL corresponds to a Ki of 11 nM. With `CN(C)CCCNc1ccc(S(=O)(=O)NC(=O)c2nc(N3CCc4cccc(C(=O)Nc5nc6ccccc6s5)c4C3)sc2Cc2ccccc2)cc1[N+](=O)[O-]` [Example 9, N-(1,3-benzothiazol-2-yl)-2-(5-benzyl-4-{[(4-{[3-(dimethylamino)propyl]amino}-3-nitrophenyl)sulfonyl]carbamoyl}-1,3-thiazol-2-yl)-1,2,3,4-tetrahydroisoquinoline-8-carboxamide], the EC50 in experiment [1] was over 1000 nM. At GST-Bcl-xL, the affinity, expressed as Ki, was 41 nM. In the case of `O=C(NS(=O)(=O)c1ccc(N[C@H](CCN2CCOCC2)CSc2ccccc2)c([N+](=O)[O-])c1)c1csc(N2CCc3cccc(C(=O)Nc4nc5ccccc5s4)c3C2)n1` [Example 10, N-(1,3-benzothiazol-2-yl)-2-(4-{[(4-{[(2R)-4-(morpholin-4-yl)-1-(phenylsulfanyl)butan-2-yl]amino}-3-nitrophenyl)sulfonyl]carbamoyl}-1,3-thiazol-2-yl)-1,2,3,4-tetrahydroisoquinoline-8-carboxamide], on GST-Bcl-xL, the Ki came out at 0.14 nM.

As to `CN(C)CCCNc1ccc(S(=O)(=O)NC(=O)c2nc(N3CCc4cccc(C(=O)Nc5nc6ccccc6s5)c4C3)sc2CCc2ccccc2)cc1S(=O)(=O)C(F)(F)F` [Example 11, N-(1,3-benzothiazol-2-yl)-2-[4-{[(4-{[3-(dimethylamino)propyl]amino}-3-[(trifluoromethyl)sulfonyl]phenyl)sulfonyl]carbamoyl}-5-(2-phenylethyl)-1,3-thiazol-2-yl]-1,2,3,4-tetrahydroisoquinoline-8-carboxamide], in experiment [1], the EC50 is 22 nM. Further, affinity on GST-Bcl-xL was put at a Ki of 0.06 nM. Consider `CN(C)CC[C@H](CSc1ccccc1)Nc1ccc(S(=O)(=O)NC(=O)c2csc(N3CCc4cccc(C(=O)Nc5nc6ccccc6s5)c4C3)n2)cc1S(=O)(=O)C(F)(F)F` [Example 12, N-(1,3-benzothiazol-2-yl)-2-(4-{[(4-{[(2R)-4-(dimethylamino)-1-(phenylsulfanyl)butan-2-yl]amino}-3-[(trifluoromethyl)sulfonyl]phenyl)sulfonyl]carbamoyl}-1,3-thiazol-2-yl)-1,2,3,4-tetrahydroisoquinoline-8-carboxamide], for which the EC50 in experiment [1] was 3 nM. In addition, the inhibitory constant (Ki) at GST-Bcl-xL was found to be 0.04 nM. As for `CN(C)CCCNc1ccc(S(=O)(=O)NC(=O)c2nc(N3CCc4cccc(C(=O)Nc5nc6ccccc6s5)c4C3)sc2CCc2ccccc2)cc1[N+](=O)[O-]` [Example 13, N-(1,3-benzothiazol-2-yl)-2-[4-{[(4-{[3-(dimethylamino)propyl]amino}-3-nitrophenyl)sulfonyl]carbamoyl}-5-(2-phenylethyl)-1,3-thiazol-2-yl]-1,2,3,4-tetrahydroisoquinoline-8-carboxamide], the EC50 in experiment [1] stood at 94 nM. The same compound had an inhibitory constant (Ki) at GST-Bcl-xL of 0.8 nM.

At GST-Bcl-xL, `O=C(NS(=O)(=O)c1ccc(N[C@H](CCO)CSc2ccccc2)c(S(=O)(=O)C(F)(F)F)c1)c1csc(N2CCc3cccc(C(=O)Nc4nc5ccccc5s4)c3C2)n1` [Example 14, N-(1,3-benzothiazol-2-yl)-2-(4-{[(4-{[(2R)-4-hydroxy-1-(phenylsulfanyl)butan-2-yl]amino}-3-[(trifluoromethyl)sulfonyl]phenyl)sulfonyl]carbamoyl}-1,3-thiazol-2-yl)-1,2,3,4-tetrahydroisoquinoline-8-carboxamide] showed a Ki of 0.2 nM. Compound `CN(C)CCCNc1ccc(S(=O)(=O)NC(=O)c2nc(N3CCc4cccc(C(=O)Nc5nc6ccccc6s5)c4C3)sc2CCCc2ccccc2)cc1[N+](=O)[O-]` [Example 15, N-(1,3-benzothiazol-2-yl)-2-[4-{[(4-{[3-(dimethylamino)propyl]amino}-3-nitrophenyl)sulfonyl]carbamoyl}-5-(3-phenylpropyl)-1,3-thiazol-2-yl]-1,2,3,4-tetrahydroisoquinoline-8-carboxamide] displayed a Ki on GST-Bcl-xL of 5 nM.
